Assay results from patent US5500410A, “Substituted alkylamide derivatives of teicoplanin” (Gruppo Lepetit S.p.A., priority 1989, dated 1996).

Tests used:
Assay in all cases: In vitro MIC, two-fold dilution in microtiter
Type in all cases: cell-based
[1] = system: Escherichia coli SKF 12140; details: 18-24 h at 37° C., inoculum about 10^4 CFU/ml
Experimental: (§1) Broth cultures are diluted enough so that the final inecuium is about 10^4 colony forming units/ml (CFU/ml).

[2] = system: Proteus vulgaris X19H ATCC 881; details: 18-24 h at 37° C., inoculum about 10^4 CFU/ml
Experimental: as §1

[3] = system: Pseudomonas aeruginosa ATCC 10145; details: for MIC Pseudomonas aeruginosa ATCC 10145: 18-24 h at 37° C., inoculum about 10^4 CFU/ml
Experimental: as §1

[4] = system: Staphylococcus aureus TOUR; details: 18-24 h at 37° C., inoculum about 10^4 CFU/ml
Experimental: as §1

[5] = system: Staphylococcus epidermidis ATCC 12228; details: 18-24 h at 37° C., inoculum about 10^4 CFU/ml
Experimental: as §1

[6] = system: Staphylococcus haemolyticus L 602; details: 18-24 h at 37° C., inoculum about 10^4 CFU/ml
Experimental: as §1

[7] = system: Streptococcus faecalis ATCC 7080; details: 18-24 h at 37° C., inoculum about 10^4 CFU/ml
Experimental: as §1

[8] = system: Streptococcus pneumoniae UC 41; details: 18-24 h at 37° C., inoculum about 10^4 CFU/ml
Experimental: as §1

[9] = system: Streptococcus pyogenes C 203; details: 18-24 h at 37° C., inoculum about 10^4 CFU/ml
Experimental: as §1

Molecule	MIC Escherichia coli SKF 12140 [1] [microgram/ml]	MIC Proteus vulgaris X19H ATCC 881 [2] [microgram/ml]	MIC Pseudomonas aeruginosa ATCC 10145 [3] [microgram/ml]	MIC Staphylococcus aureus TOUR [4] [microgram/ml]	MIC Staphylococcus epidermidis ATCC 12228 [5] [microgram/ml]	MIC Staphylococcus haemolyticus L 602 [6] [microgram/ml]	MIC Streptococcus faecalis ATCC 7080 [7] [microgram/ml]	MIC Streptococcus pneumoniae UC 41 [8] [microgram/ml]	MIC Streptococcus pyogenes C 203 [9] [microgram/ml]	MIC against Pseudomonas aeruginosa (comparison compounds) ([3]; strain not specified ("the same microorganism")) [microgram/ml]
NCCNCCNC(=O)C1NC(=O)C2NC(=O)C(NC(=O)C3NC(=O)C4NC(=O)C(Cc5ccc(c(Cl)c5)Oc5cc3cc(c5O)Oc3ccc(cc3Cl)C2O)NC(=O)C(N)c2ccc(O)c(c2)Oc2cc(O)cc4c2)c2ccc(O)c(c2)-c2c(O)cc(O)cc21 (stereo not shown) [Compound 21]	8	64	64	0.06	0.06	0.12	0.12	0.12	0.12	–
NCCNCCCNCCNC(=O)C1NC(=O)C2NC(=O)C(NC(=O)C3NC(=O)C4NC(=O)C(Cc5ccc(c(Cl)c5)Oc5cc3cc(c5O)Oc3ccc(cc3Cl)C2O)NC(=O)C(N)c2ccc(O)c(c2)Oc2cc(O)cc4c2)c2ccc(O)c(c2)-c2c(O)cc(O)cc21 (stereo not shown) [Compound 24]	4	128	64	0.06	0.06	0.06	0.12	0.12	0.06	–
NCCCN1CCN(CCCNC(=O)C2NC(=O)C3NC(=O)C(NC(=O)C4NC(=O)C5NC(=O)C(Cc6ccc(c(Cl)c6)Oc6cc4cc(c6O)Oc4ccc(cc4Cl)C3O)NC(=O)C(N)c3ccc(O)c(c3)Oc3cc(O)cc5c3)c3ccc(O)c(c3)-c3c(O)cc(O)cc32)CC1 (stereo not shown) [Compound 30]	4	128	16	0.06	0.06	0.12	0.12	0.12	0.06	–
CC(=O)N[C@H]1[C@H](OC2c3ccc(c(Cl)c3)Oc3cc4cc(c3O)Oc3ccc(cc3Cl)CC3NC(=O)C(N)c5ccc(O)c(c5)Oc5cc(O)cc(c5)C(NC3=O)C(=O)NC4C(=O)NC3C(=O)NC2C(=O)NC(C(=O)NCCCNCCCCNCCCN)c2cc(O)cc(O[C@H]4O[C@H](CO)[C@@H](O)[C@H](O)[C@@H]4O)c2-c2cc3ccc2O)O[C@H](CO)[C@@H](O)[C@@H]1O (stereo partly shown) [Compound 39]	32	> 128	128	0.25	0.06	0.12	0.5	0.5	0.12	–
teicoplanin [reference compound]	–	–	–	–	–	–	–	–	–	≥ 32
